Results on 30 compounds are retold here after US20250019382A1, “NOVEL INHIBITORS OF CYCLIN-DEPENDENT KINASES” (Origenis Gmbh, priority 2021, published 2025).

A word on the IC50: it is the midpoint of a concentration-inhibition curve. A lower IC50 goes with higher potency.

This test deals with T1, CDK9/CyclinT1 (Homo sapiens, UniProt P50750).
T1 construct: purchased ProQinase/Reaction Biology, USA #0371-0345-1
T1 sequence (P50750 whole entry): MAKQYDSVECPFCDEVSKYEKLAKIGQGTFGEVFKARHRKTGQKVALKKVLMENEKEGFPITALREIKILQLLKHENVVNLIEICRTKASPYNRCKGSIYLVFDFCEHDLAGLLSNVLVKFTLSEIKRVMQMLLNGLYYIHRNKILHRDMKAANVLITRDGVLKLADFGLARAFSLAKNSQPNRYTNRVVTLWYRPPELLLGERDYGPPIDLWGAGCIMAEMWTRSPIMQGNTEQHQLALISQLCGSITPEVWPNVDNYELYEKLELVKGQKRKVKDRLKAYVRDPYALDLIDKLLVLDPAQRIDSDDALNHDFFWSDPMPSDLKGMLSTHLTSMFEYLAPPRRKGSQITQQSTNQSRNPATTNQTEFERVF
T1 sequence (O60563 whole entry partner): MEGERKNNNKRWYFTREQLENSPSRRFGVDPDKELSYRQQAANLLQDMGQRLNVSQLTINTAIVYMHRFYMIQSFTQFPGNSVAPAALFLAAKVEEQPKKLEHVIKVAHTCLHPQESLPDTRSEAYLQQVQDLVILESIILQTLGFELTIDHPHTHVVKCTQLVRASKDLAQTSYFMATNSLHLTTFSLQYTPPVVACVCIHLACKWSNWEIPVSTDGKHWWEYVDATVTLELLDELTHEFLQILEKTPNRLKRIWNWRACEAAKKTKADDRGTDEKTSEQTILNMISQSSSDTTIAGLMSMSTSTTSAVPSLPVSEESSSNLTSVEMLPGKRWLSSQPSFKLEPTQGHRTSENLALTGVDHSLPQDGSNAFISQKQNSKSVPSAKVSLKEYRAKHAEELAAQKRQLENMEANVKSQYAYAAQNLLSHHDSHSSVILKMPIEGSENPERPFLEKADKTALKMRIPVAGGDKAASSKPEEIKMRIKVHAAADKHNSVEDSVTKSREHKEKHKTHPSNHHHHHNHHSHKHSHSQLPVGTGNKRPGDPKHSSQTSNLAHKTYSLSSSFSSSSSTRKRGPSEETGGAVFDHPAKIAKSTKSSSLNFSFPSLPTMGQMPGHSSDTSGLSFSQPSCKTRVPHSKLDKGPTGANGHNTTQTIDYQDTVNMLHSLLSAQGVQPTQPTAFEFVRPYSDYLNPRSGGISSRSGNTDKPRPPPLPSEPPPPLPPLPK
The test is described as follows: CDK9/T1 ADPGlo kinase assay. The format is biochemical. The settings on record: CDK9/CyclinT1 6 nM, ATP 10 microM, PDKtide 40 microM, 120 min RT. How it is done:
The testing compound was evaluated in 12 concentrations in a 1:3 dilution series, starting from 5microM as the highest concentration.
In a white 384 microplate (Greiner bio-one, Austria #784904,) with 2 microL of 3-fold concentrated CDK9/CyclinT1 (ProQinase/Reaction Biology, USA #0371-0345-1, LOT.: 012), final concentration (f.c.) 6 nM, in 1×kinase buffer, 2 microL of compound (3× fold concentrated in f.c. 1.66% DMSO/H2O) was added and incubated at Room Temperature (RT) for 10 min. Then 2 microL of Substrate/ATP-Mix (3×PDKtide f.c. 40 microM, SignalChem Biotech, Canada via Biozol, Eching, Germany #P10-58, LOT.: L2230-7 and 3×UltraPure ATP f.c. 10 microM (ADP Glo Kinase assay, Promega GmbH, Germany #V9102)) were added, mixed and incubated for 120 min at RT.
After incubation time, 5 microL of ADP Glo reagent (ready to use, ADP Glo Kinase assay, Promega GmbH, Germany #V9102) were added, mixed and incubated for 40 min at RT.
In the last step, 10 microL of ADP Glo Detection reagent (ready to use, ADP Glo Kinase assay, Promega GmbH, Germany #V9102) were added, mixed and incubated for 30 min at RT.
GloMax Discover GM3000 Reader (Promega GmbH, Germany 9700000249) was used for the readout.
The inhibitor concentration was plotted against the luminescence to determine the IC50 using XLFit 5.5 (IDBS, Guildford) to fit to a sigmoidal dose response curve with a variable slope.
Background: ADP-Glo first removes unused ATP, then detects ADP through luciferase.
`CCOc1cc(Nc2nc(-c3c(F)cccc3F)nc3ccnn23)ccc1N1CCN(C)CC1` [Example #8, 2-(2,6-difluorophenyl)-N-(3-ethoxy-4-(4-methylpiperazin-1-yl)phenyl)pyrazolo[1,5-a][1,3,5]triazin-4-amine] returned an IC50 of less than 1000 nM. With `CCOc1cc(Nc2nc(-c3c(Cl)cccc3Cl)nc3ccnn23)ccc1N1CCN(C)CC1` [Example #12, 2-(2,6-dichlorophenyl)-N-(3-ethoxy-4-(4-methylpiperazin-1-yl)phenyl)pyrazolo[1,5-a][1,3,5]triazin-4-amine], the IC50 is less than 1000 nM.

In turn, `CCOc1cc(Nc2nc(-c3c(F)cccc3F)nc3ccnn23)ccc1C1=CCN(C)CC1` [Example #14, 2-(2,6-difluorophenyl)-N-(3-ethoxy-4-(1-methyl-1,2,3,6-tetrahydropyridin-4-yl)phenyl)pyrazolo[1,5-a][1,3,5]triazin-4-amine] showed an IC50 of less than 1000 nM.

Turning to `CCOc1cc(Nc2nc(-c3c(F)cccc3Cl)nc3ccnn23)ccc1C1=CCN(C)CC1` [Example #16, 2-(2-chloro-6-fluorophenyl)-N-(3-ethoxy-4-(1-methyl-1,2,3,6-tetrahydropyridin-4-yl)phenyl)pyrazolo[1,5-a][1,3,5]triazin-4-amine], the IC50 was less than 1000 nM. To `CCOc1cc(Nc2nc(-c3c(F)cccc3Cl)nc3ccnn23)ccc1C1CCN(C)CC1` [Example #17, 2-(2-chloro-6-fluorophenyl)-N-(3-ethoxy-4-(1-methylpiperidin-4-yl)phenyl)pyrazolo[1,5-a][1,3,5]triazin-4-amine] belongs less than 1000 nM; to `CCOc1cc(Nc2nc(-c3c(F)cccc3F)nc3ccnn23)ccc1C1CCN(C)CC1` [Example #20, 2-(2,6-difluorophenyl)-N-(3-ethoxy-4-(1-methylpiperidin-4-yl)phenyl)pyrazolo[1,5-a][1,3,5]triazin-4-amine], less than 1000 nM; to `O=C(NCC(F)(F)F)c1ccc(Nc2nc(-c3c(F)cccc3Cl)nc3ccnn23)cc1` [Example #22, 4-((2-(2-chloro-6-fluorophenyl)pyrazolo[1,5-a][1,3,5]triazin-4-yl)amino)-N-(2,2,2-trifluoroethyl)benzamide], less than 1000 nM.

`CC(C)(C)NC(=O)c1ccc(Nc2nc(-c3c(F)cccc3Cl)nc3ccnn23)cc1` [Example #23, N-(tert-butyl)-4-((2-(2-chloro-6-fluorophenyl)pyrazolo[1,5-a][1,3,5]triazin-4-yl)amino)benzamide]: the IC50 was less than 1000 nM. The value for `CCNC(=O)c1ccc(Nc2nc(-c3c(F)cccc3Cl)nc3ccnn23)cc1` [Example #24, 4-((2-(2-chloro-6-fluorophenyl)pyrazolo[1,5-a][1,3,5]triazin-4-yl)amino)-N-ethylbenzamide] was less than 1000 nM; that for `O=C(NC1CCOCC1)c1ccc(Nc2nc(-c3c(F)cccc3Cl)nc3ccnn23)cc1` [Example #25, 4-((2-(2-chloro-6-fluorophenyl)pyrazolo[1,5-a][1,3,5]triazin-4-yl)amino)-N-(tetrahydro-2H-pyran-4-yl)benzamide] was less than 1000 nM. Compound `O=C(NCC(F)(F)F)c1ccc(Nc2nc(-c3c(F)cccc3F)nc3ccnn23)cc1` [Example #26, 4-((2-(2,6-difluorophenyl)pyrazolo[1,5-a][1,3,5]triazin-4-yl)amino)-N-(2,2,2-trifluoroethyl)benzamide] gave an IC50 of less than 1000 nM. Turning to `CC(C)(C)NC(=O)c1ccc(Nc2nc(-c3c(F)cccc3F)nc3ccnn23)cc1` [Example #27, N-(tert-butyl)-4-((2-(2,6-difluorophenyl)pyrazolo[1,5-a][1,3,5]triazin-4-yl)amino)benzamide], the IC50 was less than 1000 nM. `CCNC(=O)c1ccc(Nc2nc(-c3c(F)cccc3F)nc3ccnn23)cc1` [Example #28, 4-((2-(2,6-difluorophenyl)pyrazolo[1,5-a][1,3,5]triazin-4-yl)amino)-N-ethylbenzamide]: the IC50 was less than 1000 nM. For `O=C(NC1CCOCC1)c1ccc(Nc2nc(-c3c(F)cccc3F)nc3ccnn23)cc1` [Example #29, 4-((2-(2,6-difluorophenyl)pyrazolo[1,5-a][1,3,5]triazin-4-yl)amino)-N-(tetrahydro-2H-pyran-4-yl)benzamide], the IC50 was less than 1000 nM.

With `CCOc1cc(Nc2nc(-c3c(F)cccc3Cl)nc3ccnn23)ccc1N1CCN(C)CC1` [Example #32, 2-(2-chloro-6-fluorophenyl)-N-(3-ethoxy-4-(4-methylpiperazin-1-yl)phenyl)pyrazolo[1,5-a][1,3,5]triazin-4-amine], the IC50 is less than 1000 nM. Compound `CCOc1cc(Nc2nc(-c3c(F)cccc3Cl)nc3ccnn23)ccc1C1=CCN(C2CC2)CC1` [Example #34, 2-(2-chloro-6-fluorophenyl)-N-(4-(1-cyclopropyl-1,2,3,6-tetrahydropyridin-4-yl)-3-ethoxyphenyl)pyrazolo[1,5-a][1,3,5]triazin-4-amine] returned an IC50 of less than 1000 nM. For the compound `CC(C)(C#N)n1cc(Nc2nc(-c3c(F)cccc3Cl)nc3ccnn23)cn1` [Example #36, 2-(4-((2-(2-chloro-6-fluorophenyl)pyrazolo[1,5-a][1,3,5]triazin-4-yl)amino)-1H-pyrazol-1-yl)-2-methylpropanenitrile], the IC50 is less than 1000 nM. The value for `Fc1cccc(F)c1-c1nc(Nc2ccc(N3CCOCC3)cc2)n2nccc2n1` [Example #37, 2-(2,6-difluorophenyl)-N-(4-morpholinophenyl)pyrazolo[1,5-a][1,3,5]triazin-4-amine] was less than 1000 nM. For the compound `CN1CCN(c2ccc(Nc3nc(-c4c(F)cccc4F)nc4ccnn34)cc2)CC1` [Example #38, 2-(2,6-difluorophenyl)-N-(4-(4-methylpiperazin-1-yl)phenyl)pyrazolo[1,5-a][1,3,5]triazin-4-amine], the IC50 is less than 1000 nM. `CC(=O)N1CCN(c2ccc(Nc3nc(-c4c(F)cccc4F)nc4ccnn34)cc2)CC1` [Example #39, 1-(4-(4-((2-(2,6-difluorophenyl)pyrazolo[1,5-a][1,3,5]triazin-4-yl)amino)phenyl)piperazin-1-yl)ethan-1-one] returned an IC50 of less than 1000 nM. `N#Cc1cc(Nc2nc(-c3c(F)cccc3F)nc3ccnn23)ccc1N1CCOCC1` [Example #42, 5-((2-(2,6-difluorophenyl)pyrazolo[1,5-a][1,3,5]triazin-4-yl)amino)-2-morpholinobenzonitrile] displayed an IC50 of less than 1000 nM. On to `Fc1cccc(F)c1-c1nc(Nc2ccc(N3CCC(N4CCOCC4)CC3)cc2)n2nccc2n1` [Example #43, 2-(2,6-difluorophenyl)-N-(4-(4-morpholinopiperidin-1-yl)phenyl)pyrazolo[1,5-a][1,3,5]triazin-4-amine], for which the IC50 was less than 1000 nM. `CC(C)(C)N1CCN(c2ccc(Nc3nc(-c4c(F)cccc4F)nc4ccnn34)cc2)CC1` [Example #45, N-(4-(4-(tert-butyl)piperazin-1-yl)phenyl)-2-(2,6-difluorophenyl)pyrazolo[1,5-a][1,3,5]triazin-4-amine] returned an IC50 of less than 200 nM. Regarding `CN1CCN(C2CCN(c3ccc(Nc4nc(-c5c(F)cccc5F)nc5ccnn45)cc3)CC2)CC1` [Example #46, 2-(2,6-difluorophenyl)-N-(4-(4-(4-methylpiperazin-1-yl)piperidin-1-yl)phenyl)pyrazolo[1,5-a][1,3,5]triazin-4-amine], the IC50 is less than 1000 nM. Compound `CC(C)(C)N1CCN(c2ccc(Nc3nc(-c4ccccc4F)nc4ccnn34)cc2)CC1` [Example #54, N-(4-(4-(tert-butyl)piperazin-1-yl)phenyl)-2-(2-fluorophenyl)pyrazolo[1,5-a][1,3,5]triazin-4-amine] yielded an IC50 of less than 1000 nM. Turning to `CN1CCN(C2CCN(c3ccc(Nc4nc(-c5ccccc5F)nc5ccnn45)cc3)CC2)CC1` [Example #59, 2-(2-fluorophenyl)-N-(4-(4-(4-methylpiperazin-1-yl)piperidin-1-yl)phenyl)pyrazolo[1,5-a][1,3,5]triazin-4-amine], the IC50 was less than 1000 nM. On to `COc1cc(Nc2nc(-c3c(F)cccc3F)nc3ccnn23)ccc1N1CCC(N2CCN(C)CC2)CC1` [Example #62, 2-(2,6-difluorophenyl)-N-(3-methoxy-4-(4-(4-methylpiperazin-1-yl)piperidin-1-yl)phenyl)pyrazolo[1,5-a][1,3,5]triazin-4-amine], for which the IC50 was less than 1000 nM. To `COc1ccc(Nc2nc(-c3c(F)cccc3F)nc3ccnn23)cc1OC` [Example #65, 2-(2,6-difluorophenyl)-N-(3,4-dimethoxyphenyl)pyrazolo[1,5-a][1,3,5]triazin-4-amine] belongs less than 1000 nM. As to `CN1CCC(N2CCC(n3cc(Nc4nc(-c5c(F)cccc5F)nc5ccnn45)cn3)CC2)CC1` [Example #66, 2-(2,6-difluorophenyl)-N-(1-(1′-methyl-[1,4′-bipiperidin]-4-yl)-1H-pyrazol-4-yl)pyrazolo[1,5-a][1,3,5]triazin-4-amine], the IC50 was less than 200 nM. To `Fc1cccc(F)c1-c1nc(Nc2cnn(C3CCN(C4CCOCC4)CC3)c2)n2nccc2n1` [Example #67, 2-(2,6-difluorophenyl)-N-(1-(1-(tetrahydro-2H-pyran-4-yl)piperidin-4-yl)-1H-pyrazol-4-yl)pyrazolo[1,5-a][1,3,5]triazin-4-amine] belongs less than 200 nM.
